Data: patent publication US8846750B2, “Pharmaceutical and food compositions for preventing or treating diabetes or obesity” (Korea Ocean Research and Development Institute, priority 2010, dated 2014)

Experiments:
TC-PTP (PTPN2) = target: T1, TC-PTP (PTPN2) (Homo sapiens, UniProt P17706); experiment: Selectivity for protein tyrosine phosphatases: TC-PTP (PTPN2); format: biochemical; details: 0, 50, 100 or 200 nM tested
T1 construct: purchased Bioneer, Korea
T1 sequence (P17706 1-415): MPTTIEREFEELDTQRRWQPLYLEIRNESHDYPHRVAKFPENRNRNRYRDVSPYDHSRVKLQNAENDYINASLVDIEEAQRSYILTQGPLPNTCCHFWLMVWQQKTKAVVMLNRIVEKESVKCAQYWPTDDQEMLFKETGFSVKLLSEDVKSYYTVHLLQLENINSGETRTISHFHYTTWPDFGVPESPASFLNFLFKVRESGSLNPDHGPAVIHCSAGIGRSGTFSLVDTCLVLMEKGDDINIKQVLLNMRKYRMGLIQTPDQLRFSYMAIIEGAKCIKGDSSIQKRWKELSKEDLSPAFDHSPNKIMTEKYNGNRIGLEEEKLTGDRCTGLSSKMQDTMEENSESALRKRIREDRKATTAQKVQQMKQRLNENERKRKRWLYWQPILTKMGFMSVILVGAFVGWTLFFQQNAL
Protocol: (§1) In order to examine the selectivity of sodium lobarate for protein tyrosine phosphatases, the inhibitory activities of sodium lobarate against PTP-1b, PTPN2, PTPN5, PTPN6, PTPN7 and PTPN13 were examined by spectroscopically measuring the activities of the enzymes.
Specifically, to 0.5 mg/Ml of PTP-1b, PTPN2, PTPN5, PTPN6, PTPN7 or PTPN13 (Bioneer, Korea) in protein tyrosine phosphatase buffer (20 mM Tris-Hcl, pH 8.0, 0.75 mM NaCl, 0.5 mM EDTA, 5 mM β-mercaptoethanol, 50% glycerol), 0, 50, 100 or 200 nM sodium lobarate and the substrate [pTyr1146] insulin receptor (1142-1153, Sigma, USA) were added. Then, each of the mixtures was allowed to react at room temperature for 10-30 minutes, and then malachite green-molybdate dye solution (Sigma, USA) was added thereto and reacted at room temperature for 10 minutes. After completion of the reaction with the substrate, the absorbance at 620 nm was measured. […]
Specifically, to 0.5 mg/Ml of PTP-1b, PTPN2, PTPN5, PTPN6, PTPN7 or PTPN13 (Bioneer, Korea) in protein tyrosine phosphatase buffer (20 mM Tris-Hcl, pH 8.0, 0.75 mM NaCl, 0.5 mM EDTA, 5 mM β-mercaptoethanol, 50% glycerol), 0, 50, 100 or 200 nM Lobarin and the substrate [pTyr1146] insulin receptor (1142-1153, Sigma, USA) were added. […] After completion of the reaction with the substrate, the absorbance at 620 nm was measured. […]

[1] = system: other protein tyrosine phosphatases (PTPN5, PTPN6, PTPN7, PTPN13); experiment: Selectivity for protein tyrosine phosphatases: other phosphatases of the panel; format: biochemical; details: for inhibitory activity against other protein tyrosine phosphatases: 0, 50, 100 or 200 nM tested; for selectivity among protein tyrosine phosphatases: PTP-1b, PTPN2, PTPN5, PTPN6, PTPN7 and PTPN13
Protocol: as §1
(§2) Specifically, to 0.5 mg/Ml of PTP-1b, PTPN2, PTPN5, PTPN6, PTPN7 or PTPN13 (Bioneer, Korea) in protein tyrosine phosphatase buffer (20 mM Tris-Hcl, pH 8.0, 0.75 mM NaCl, 0.5 mM EDTA, 5 mM β-mercaptoethanol, 50% glycerol), 0, 50, 100 or 200 nM sodium lobarate and the substrate [pTyr1146] insulin receptor (1142-1153, Sigma, USA) were added. Then, each of the mixtures was allowed to react at room temperature for 10-30 minutes, and then malachite green-molybdate dye solution (Sigma, USA) was added thereto and reacted at room temperature for 10 minutes. After completion of the reaction with the substrate, the absorbance at 620 nm was measured.
In order to examine the selectivity of Lobarin for protein tyrosine phosphatases, the inhibitory activities of Lobarin against PTP-1b, PTPN2, PTPN5, PTPN6, PTPN7 and PTPN13 were examined by spectroscopically measuring the activities of the enzymes.
as §2, with “Lobarin” for “sodium lobarate”
as §2, with “In order to examine the selectivity of Lobarstin for protein tyrosine phosphatases, the inhibitory activities of Lobarstin against PTP-1b, PTPN2, PTPN5, PTPN6, PTPN7 and PTPN13 were examined by spectroscopically measuring the activities of the enzymes. Specifically,” for “Specifically,”, “Lobarstin” for “sodium lobarate”

[2] = system: db/db mice (type 2 diabetic model animals); experiment: Intraperitoneal glucose tolerance test (IPGTT) 28 days after intraperitoneal administration; format: in vivo; details: 10 mg/kg i.p. for 28 days; for blood glucose level after injection of glucose (IPGTT): fasted 16 hours; for course of blood glucose level in IPGTT: versus control group
Protocol: An intraperitoneal glucose tolerance test (IPGTT) in the animal model of sodium lobarate was performed in the following manner.
To 7-week-old male db/db mice (type 2 diabetic model animals, C57/BLKS/J-db/db, the Korea Research Institute of Bioscience and Biotechnology), physiological saline for a control group and 10 mg/kg of sodium lobarate for a test group was injected, respectively, intraperitoneally every day for 28 days. Then, the animals were fasted for 16 hours without administering physiological saline or sodium lobarate, after which glucose (500 mg/Ml; injection volume of […]) was injected intraperitoneally into the animals. 0, 15, 30, 60, 90 and 120 min after injection of glucose, blood was sampled from the tail vein, and the changes in the blood glucose levels of the samples were measured. […]
(§3) To 7-week-old male db/db mice (type 2 diabetic model animals, C57/BLKS/J-db/db, the Korea Research Institute of Bioscience and Biotechnology), 20% DMSO for a control group and 10 mg/kg of Lobarin for a test group was injected, respectively, intraperitoneally every day for 28 days. Then, the animals were fasted for 16 hours without administering 20% DMSO or Lobarin for each group, after which glucose (500 mg/Ml; injection volume of 200 μl) was injected intraperitoneally into the animals. 0, 15, 30, 60, 90 and 120 min after injection of glucose, blood was sampled from the tail vein, and the changes in the blood glucose levels of the samples were measured.
as §3, with “Lobarstin” for “Lobarin”, “physiological saline and Lobarstin,” for “20% DMSO or Lobarin for each group,”

Row | SMILES | inhibitory activity against TC-PTP (PTPN2) (TC-PTP (PTPN2)) | inhibitory activity against other protein tyrosine phosphatases [1] | selectivity among protein tyrosine phosphatases [1] | blood glucose level after injection of glucose (IPGTT) ([2]; 0 min) [mg/dL] | course of blood glucose level in IPGTT [2] | blood glucose level after injection of glucose (IPGTT) ([2]; 15 min) [mg/dL] | blood glucose level after injection of glucose (IPGTT) ([2]; 30 min) [mg/dL] | blood glucose level after injection of glucose (IPGTT) ([2]; 60 min) [mg/dL] | blood glucose level after injection of glucose (IPGTT) ([2]; 90 min) [mg/dL] | blood glucose level after injection of glucose (IPGTT) ([2]; 120 min) [mg/dL]
1 | CCCCCc1c(Oc2cc(OC)cc3c2C(=O)OC3(O)CCCC)c(O)cc(O)c1C(=O)O (stereo not shown) [Lobarin] | no inhibitory activity | no inhibitory activity | acts selectively only on PTP-1b | 153 | a low increase and a fast decrease in the blood glucose level | 358 | 436 | 390 | 335 | 290
2 | CCCCCc1c2c(cc(O)c1C(=O)[O-])OC(=O)c1c(cc(OC)cc1C(=O)CCCC)O2.[Na+] [sodium lobarate] | – | – | acts selectively only on PTP-1b | 153 | a low increase and a fast decrease in the blood glucose level | 291 | 361 | 385 | 335 | 290
3 | CCC/C=C1/OC(=O)c2c(Oc3c(O)cc(O)c(C(=O)O)c3CCCCC)cc(OC)cc21 [Lobarstin] | no inhibitory activity | no inhibitory activity | acts selectively only on PTP-1b | 152 | a low increase and a fast decrease in the blood glucose level | 229 | 307 | 205 | 162 | 147
